IC50 data for 22 molecules are collected here from patent US10941129B2, “Benzyl phenyl ether derivative, preparation method therefor, and pharmaceutical composition and uses thereof” (Institute of Materia Medica, Chinese Academy of Medical …, priority 2016, dated 2021).

For orientation: IC50 means the concentration at which inhibition is half-maximal.

Sequence of interaction between PD-1 and PD-L1 (Q9NZQ7 19-238): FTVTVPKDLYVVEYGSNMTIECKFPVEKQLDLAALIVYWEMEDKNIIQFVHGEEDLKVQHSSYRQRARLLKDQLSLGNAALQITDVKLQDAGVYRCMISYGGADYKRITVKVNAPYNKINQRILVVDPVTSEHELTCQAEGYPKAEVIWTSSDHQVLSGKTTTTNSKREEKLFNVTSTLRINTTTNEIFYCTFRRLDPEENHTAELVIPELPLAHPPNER

This assay concerns the target interaction between PD-1 and PD-L1 (Homo sapiens (Human), UniProt Q9NZQ7). Briefly: Cisbio PD-1/PD-L1 binding assay kit (HTRF). As to conditions: read-out: IC50, inhibitory activity at molecular level on the interaction between PD-1 and PD-L1. An excerpt:
1. In vitro activity evaluation: Cisbio PD-1/PD-L1 binding assay kit was applied for the detection method of in vitro enzymology level.
1) Principle: PD-1 protein is with HIS tag, and PD-1 ligand PD-L1 is with hFc tag. Eu labeled anti-hFc antibody and XL665 labeled anti-HIS antibody are combined with the above two label proteins respectively. After laser excitation, energy can be transferred from donor Eu to receptor XL665, allowing XL665 to glow.
2) Experimental method: The specific method can be referred to Cisbio's PD-1/PD-L1 Kit (item 64CUS000C-2). Reagents should be dispensed in the following order. For 384-well white ELISA plate, 2 μl of diluent or target compound diluted with diluent was added to each well, and then 4 μl of PD-1 protein and 4 μl of PD-L1 protein were added per well, incubated for 15 min at room temperature; and 10 μl of a mixture of anti-Tag1-Eu3^+ and anti-Tag2-XL665 was added per well and incubated for 1 h to 4 h at room temperature and the fluorescence signals at 665 nm and 620 nm were measured with an Envison instrument. HTRF rate=(665 nm/620 nm)*10^4. 8-10 concentrations were detected for each compound and IC50 was calculated by Graphpad software.
For orientation: Time-resolved FRET reads energy transfer from a long-lived donor to a nearby acceptor.
As for `C[C@H](O)[C@@H](NCc1ccc(OCc2cccc(-c3ccccc3)c2Br)cc1OCc1cccc(C#N)c1)C(=O)O` (stereo in doubt) [Example 8, N-(4-(2-bromo-3-phenylbenzyloxy)-2-(3-cyanobenzyloxy)benzyl) threonine], the IC50 worked out at 134 nM.

As to `C[C@H](O)[C@@H](NCc1ccc(OCc2cccc(-c3ccc4c(c3)OCCO4)c2Br)cc1OCc1cccc(C#N)c1)C(=O)O` (stereo in doubt) [Example 19, N-(4-(2-bromo-3-(2,3-dihydrobenzo[b][1,4]dioxin-6-yl)benzyloxy)-2-(3-cyanobenzyloxy)benzyl) threonine], the IC50 amounted to 18.1 nM. For `C[C@@H](NCc1cc(Cl)c(OCc2cccc(-c3ccccc3)c2Br)cc1OCc1cccc(C#N)c1)C(=O)O` (stereo in doubt) [Example 25, N-(4-(2-bromo-3-phenylbenzyloxy)-5-chloro-2-(3-cyanobenzyloxy)benzyl)alanine] the value was 3.16 nM; for `C[C@H](O)[C@@H](NCc1cc(Cl)c(OCc2cccc(-c3ccccc3)c2Br)cc1OCc1cccc(C#N)c1)C(=O)O` (stereo in doubt) [Example 26, N-(4-(2-bromo-3-phenylbenzyloxy)-5-chloro-2-(3-cyanobenzyloxy)benzyl) threonine], ≤ 10 nM. In the case of `CS(=O)(=O)c1cccc(COc2cc(OCc3cccc(-c4ccccc4)c3Br)c(Cl)cc2CN[C@H](CO)C(=O)O)c1` (stereo in doubt) [Example 27, N-(4-(2-bromo-3-phenylbenzyloxy)-5-chloro-2-(3-methanesulfonylbenzyloxy)benzyl) serine], the IC50 is ≤ 10 nM. For `CS(=O)(=O)c1cccc(COc2cc(OCc3cccc(-c4ccccc4)c3Br)c(Cl)cc2CN2CCCC[C@H]2C(=O)O)c1` (stereo in doubt) [Example 28, N-(4-(2-bromo-3-phenylbenzyloxy)-5-chloro-2-(3-methanesulfonylbenzyloxy)benzyl) pipecolinic acid] the value was ≤ 10 nM. For `CC(=O)NCCNCc1ccc(OCc2cccc(-c3ccccc3)c2Br)cc1OCc1cccc(C#N)c1` [Example 1, N-acetylaminoethyl-4-(2-bromo-3-phenylbenzyloxy)-2-(3-cyanobenzyloxy) benzylamine] the value was 439 nM.

`N#Cc1cccc(COc2cc(OCc3cccc(-c4ccccc4)c3Br)ccc2CN[C@@H](CO)C(=O)O)c1` [Example 2, N-(4-(2-bromo-3-phenylbenzyloxy)-2-(3-cyanobenzyloxy)benzyl) serine]: the IC50 was 29.4 nM. For `CCN(CCO)Cc1ccc(OCc2cccc(-c3ccccc3)c2Br)cc1OCc1cccc(C#N)c1` [Example 3, N-Ethyl-N-hydroxylethyl-4-(2-bromo-3-phenylbenzyloxy)-2-(3-cyanobenzyloxy) benzylamine] the value was 230 nM. For `N#Cc1cccc(COc2cc(OCc3cccc(-c4ccccc4)c3Br)ccc2CN2CCC[C@H]2C(=O)O)c1` [Example 4, N-(4-(2-bromo-3-phenylbenzyloxy)-2-(3-cyanobenzyloxy)benzyl) proline] the value was 59.2 nM; for `N#Cc1cccc(COc2cc(OCc3cccc(-c4ccccc4)c3Br)ccc2CNCCO)c1` [Example 5, N-hydroxylethyl-4-(2-bromo-3-phenylbenzyloxy)-2-(3-cyanobenzyloxy) benzylamine], 307 nM. Turning to `C[C@H](NCc1ccc(OCc2cccc(-c3ccccc3)c2Br)cc1OCc1cccc(C#N)c1)C(=O)O` [Example 6, N-(4-(2-bromo-3-phenylbenzyloxy)-2-(3-cyanobenzyloxy)benzyl) alanine], the IC50 is 178 nM. For `CSCC[C@H](NCc1ccc(OCc2cccc(-c3ccccc3)c2Br)cc1OCc1cccc(C#N)c1)C(=O)O` [Example 7, N-(4-(2-bromo-3-phenylbenzyloxy)-2-(3-cyanobenzyloxy)benzyl) methionine] the value was 4590 nM.

Take `N#Cc1cccc(COc2cc(OCc3cccc(-c4ccccc4)c3Br)ccc2CNC2CCOCC2)c1` [Example 9, N-(tetrahydro-2H-pyran-4-yl)-4-(2-bromo-3-phenylbenzyloxy)-2-(3-cyanobenzyloxy) benzylamine]: the IC50 is 788 nM. Turning to `COc1ccc(-c2cccc(COc3ccc(CNCCO)c(OCc4cccc(C#N)c4)c3)c2Br)cc1OC` [Example 11, N-hydroxylethyl-4-(2-bromo-3-(3,4-dimethoxyphenyl)benzyloxy)-2-(3-cyanobenzyloxy) benzylamine], the IC50 is 7870 nM. For `COc1ccc(-c2cccc(COc3ccc(CN[C@@H](CO)C(=O)O)c(OCc4cccc(C#N)c4)c3)c2Br)cc1OC` [Example 13, N-(4-(2-bromo-3-(3,4-dimethoxyphenyl)benzyloxy)-2-(3-cyanobenzyloxy)benzyl) serine] the value was 5350 nM; for `COc1ccc(-c2cccc(COc3ccc(CNCCNC(C)=O)c(OCc4cccc(C#N)c4)c3)c2Br)cc1OC` [Example 14, N-acetylaminoethyl-4-(2-bromo-3-(3,4-dimethoxyphenyl)benzyloxy)-2-(3-cyanobenzyloxy) benzylamine], 6650 nM. For `CC(=O)NCCNCc1ccc(OCc2cccc(-c3ccc4c(c3)OCCO4)c2Br)cc1OCc1cccc(C#N)c1` [Example 16, N-acetylaminoethyl-4-(2-bromo-3-(2,3-dihydrobenzo[b][1,4]dioxin-6-yl)benzyloxy)-2-(3-cyanobenzyloxy) benzylamine] the value was 268 nM; for `COc1ccc(-c2cccc(COc3ccc(CN[C@@H](C)C(=O)O)c(OCc4cccc(C#N)c4)c3)c2Br)cc1OC` [Example 17, N-(4-(2-bromo-3-(3,4-dimethoxyphenyl)benzyloxy)-2-(3-cyanobenzyloxy)benzyl) alanine], 3160 nM; for `N#Cc1cccc(COc2cc(OCc3cccc(-c4ccc5c(c4)OCCO5)c3Br)ccc2CN[C@@H](CO)C(=O)O)c1` [Example 18, N-(4-(2-bromo-3-(2,3-dihydrobenzo[b][1,4]dioxin-6-yl)benzyloxy)-2-(3-cyanobenzyloxy)benzyl) serine], 38.5 nM. On to `N#Cc1cccc(COc2cc(OCc3cccc(-c4ccccc4)c3Br)c(Cl)cc2CN[C@@H](CO)C(=O)O)c1` [Example 20, N-(4-(2-bromo-3-phenylbenzyloxy)-5-chloro-2-(3-cyanobenzyloxy)benzyl) serine], for which the IC50 came out at 2.48 nM. For `N#Cc1cccc(COc2cc(OCc3cccc(-c4ccc5c(c4)OCCO5)c3Br)c(Cl)cc2CN2CCCC[C@H]2C(=O)O)c1` [Example 24, (S)—N-(4-(2-bromo-3-(2,3-dihydrobenzo[b][1,4]dioxin-6-yl)benzyloxy)-5-chloro-2-(3-cyanobenzyloxy)benzyl) pipecolinic acid] the value was 67.5 nM.
